How the values were obtained:
[1] = target: T1, 2-pyrone synthase (Gerbera hybrida, UniProt P48391); experiment: in vitro enzymology of purified 2-pyrone synthase; format: biochemical
T1 construct: made in house
T1 sequence (P48391 1-402): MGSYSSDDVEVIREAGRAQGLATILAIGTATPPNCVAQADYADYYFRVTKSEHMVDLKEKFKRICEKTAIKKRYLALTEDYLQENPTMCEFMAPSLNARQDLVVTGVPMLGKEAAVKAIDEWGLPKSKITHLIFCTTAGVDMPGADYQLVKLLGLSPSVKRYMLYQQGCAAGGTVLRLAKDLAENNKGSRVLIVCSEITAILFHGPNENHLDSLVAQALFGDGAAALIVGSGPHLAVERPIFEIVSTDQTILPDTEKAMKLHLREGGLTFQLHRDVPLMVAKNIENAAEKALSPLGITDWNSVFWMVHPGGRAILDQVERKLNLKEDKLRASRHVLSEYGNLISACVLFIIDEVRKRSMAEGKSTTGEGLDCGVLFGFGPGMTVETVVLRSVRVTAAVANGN
Excerpt: (§1) To further explore its role in phloroglucinol biosynthesis, PhlD is purified to homogeneity and its in vitro enzymology examined. No activity (Table 1) is observed when acetyl-CoA alone is employed as a substrate. […] For comparison, 2-pyrone synthase, which like PhlD employs an activated 3,5-diketohexanoate 2 (Scheme 1), is purified to homogeneity.

[2] = target: T2, PhlD (Pseudomonas fluorescens, UniProt Q4K418); experiment: in vitro enzymology of purified PhlD; format: biochemical, P. fluorescens Pf-5
T2 construct: made in house
T2 sequence (Q4K418 1-349): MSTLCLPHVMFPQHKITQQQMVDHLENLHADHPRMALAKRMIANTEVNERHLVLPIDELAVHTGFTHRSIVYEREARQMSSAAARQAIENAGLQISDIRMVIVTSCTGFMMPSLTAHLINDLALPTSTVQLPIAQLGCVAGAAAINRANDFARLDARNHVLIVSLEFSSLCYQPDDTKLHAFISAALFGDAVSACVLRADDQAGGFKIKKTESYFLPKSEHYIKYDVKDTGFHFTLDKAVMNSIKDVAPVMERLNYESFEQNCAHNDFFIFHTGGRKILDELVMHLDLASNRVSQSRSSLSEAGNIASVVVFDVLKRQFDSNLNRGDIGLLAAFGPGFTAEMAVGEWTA
Excerpt: as §1

[3] = tested on: E. coli strains; experiment: end-product inhibition in fed-batch fermentation of phlD-expressing E. coli strains; format: cell-based; conditions: culture medium concentration; data not shown
Protocol: Plasmid pJA3.131A (Kan^R, lacI^Q, PT7-phlD, serA) is transfected into chromosomally serA^− E. coli strains BL21(DE3), W3110(DE3), and JWF1(DE3) [i.e. RB791serA^−(DE3)], and into strain KL3(DE3) [i.e. AB2834(serA::aroB)] (E. coli strains RB791 and AB2834 are available from the E. coli Genetic Stock Center, New Haven, Conn., USA). All DE3 strains are obtained by integration of λDE3 prophage into the cell chromosomes. Cells are cultured in fed-batch conditions under mineral salts and limited glucose.
In these tests, phloroglucinol accumulation for all strains stops increasing during the stationary (or maintenance) phase. For BL21 and W3110, the highest phloroglucinol concentration is achieved about 6 hours and about 12 hours, respectively, after initiation of induction, i.e. the first IPTG addition. End-product inhibition is also observed.

[4] = substrate: CC(C)(COP(=O)(O)OP(=O)(O)OC[C@H]1O[C@@H](n2cnc3c(N)ncnc32)[C@H](O)[C@@H]1OP(=O)(O)O)[C@@H](O)C(=O)NCCC(=O)NCCSC(=O)CC(=O)O; experiment: in vitro enzymology of purified PhlD; format: biochemical, P. fluorescens Pf-5; conditions: other: substrate of PhlD purified to homogeneity
Excerpt: as §1

[5] = substrate: CC(=O)SCCNC(=O)CCNC(=O)[C@H](O)C(C)(C)COP(=O)(O)OP(=O)(O)OC[C@H]1O[C@@H](n2cnc3c(N)ncnc32)[C@H](O)[C@@H]1OP(=O)(O)O; experiment: in vitro enzymology of purified 2-pyrone synthase; format: biochemical, Gerbera hybrida; conditions: other: substrate of 2-pyrone synthase purified to homogeneity
Excerpt: as §1

For “2-pyrone synthase: 2-pyrone synthase from Gerbera hybrida, converts malonyl-CoA into triacetic acid lactone; comparison enzyme”, the kcat ([1]; 2-pyrone synthase purified to homogeneity) was 0.055 s⁻¹.

CC(=O)SCCNC(=O)CCNC(=O)[C@H](O)C(C)(C)COP(=O)(O)OP(=O)(O)OC[C@H]1O[C@@H](n2cnc3c(N)ncnc32)[C@H](O)[C@@H]1OP(=O)(O)O [acetyl-CoA] was tested, and the “specific activity with malonyl-CoA and acetyl-CoA relative to only malonyl-CoA” value ([2]; PhlD incubated with malonyl-CoA and acetyl-CoA) was “Approximately equal”, the activity as substrate ([2]; employed alone as a substrate of PhlD) was “No activity” and the “specific activity with malonyl-CoA and acetyl-CoA relative to malonyl-CoA in the absence of acetyl-CoA” value ([1]; 2-pyrone synthase incubated with malonyl-CoA and acetyl-CoA) was “twofold higher”. For the same molecule, the activity as substrate ([1]; acetyl-CoA as a substrate of 2-pyrone synthase) was “unable to use acetyl-CoA as a substrate”.

Oc1cc(O)cc(O)c1 [phloroglucinol, 1,3,5-trihydroxybenzene] was tested, and the “concentration at which phloroglucinol is responsible for end-product inhibition” value [3] was no less than 2 g/L.

B1: PhlD (Pseudomonas protegens Pf-5) (protein)
chain: T2 sequence (Q4K418 1-349)
notes: made in house
B1 was tested, and the Km [4] was 37 µM.

B2: PhlD: phloroglucinol synthase expressed from phlD gene of P. fluorescens Pf-5, SEQ ID NO:2 (protein)
chain: T2 sequence (Q4K418 1-349)
modifications: Pseudomonas fluorescens Pf-5
For B2, the kcat ([2]; PhlD purified to homogeneity, malonyl-CoA substrate) was 0.0783 s⁻¹.

B3: 2-pyrone synthase (Gerbera hybrid cultivar) (protein)
chain: T1 sequence (P48391 1-402)
notes: made in house
For B3, the Km [5] was 2.2 µM.
